Results published in patent publication US20240166624A1, “PPARG INVERSE AGONISTS AND USES THEREOF” (Flare Therapeutics Inc., priority 2021, published 2024).

What was measured:
[1] = target: T1, PPARG/RXRA LBD heterodimer (Homo sapiens, UniProt P37231); assay: PPARγ-NCOR1 recruitment assay (TR-FRET, biotinylated NCOR1 ID2 peptide); type: biochemical; settings: 80 nM Rosiglitazone, 3 hours, read-out: PPARG-NCOR recruitment assay EC50
T1 construct: His-TEV-Q203-Y477; Uniprot ID P37231-2; made in house; host or cells: E. coli
Outline: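 2 nM each of E. coli-expressed PPARG LBD (Q203-Y477) and RXRA LBD (WT or S427F, E228-T462) with biotinylated NCOR1 ID2 peptide, incubated 3 h; TR-FRET read at Ex/Em 615/665. Ratios normalized to DMSO (0%) and T0070907 maximum (100%) for EC50 and maximal recruitment.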
T1 sequence (O75376 2251-2273 partner, one chain of several): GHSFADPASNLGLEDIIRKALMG

[2] = system: ANGPTL4, a PPARG target gene, in HT1197 (RXRA S427F mutation) cells; assay: Bladder cancer pharmacodynamic assay, HT1197 cell assay (qPCR of ANGPTL4); type: cell-based; settings: Homo sapiens, 24 hours, 100 nM compound, relative to DMSO control
Outline: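 5637 (PPARG amplified) and HT1197 (RXRA S427F) cells treated 24 h with PPARG inverse agonists. FABP4 and ANGPTL4 expression measured by qPCR, normalised to TBP, and reported relative to DMSO control by ΔΔCt.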

[3] = target: T2, PPARG/RXRA LBD heterodimer (Homo sapiens, UniProt P37231); assay: PPARγ-MED1 blockade assay (TR-FRET, biotinylated MED1 LxxLL peptide); type: biochemical; settings: WT PPARG LBD/WT RXRA LBD, 80 nM Rosiglitazone, 3 hours
T2 construct: His-TEV-Q203-Y477; Uniprot ID P37231-2; made in house; host or cells: E. coli
T2 sequence (P37231 203-477 isoform P37231-2): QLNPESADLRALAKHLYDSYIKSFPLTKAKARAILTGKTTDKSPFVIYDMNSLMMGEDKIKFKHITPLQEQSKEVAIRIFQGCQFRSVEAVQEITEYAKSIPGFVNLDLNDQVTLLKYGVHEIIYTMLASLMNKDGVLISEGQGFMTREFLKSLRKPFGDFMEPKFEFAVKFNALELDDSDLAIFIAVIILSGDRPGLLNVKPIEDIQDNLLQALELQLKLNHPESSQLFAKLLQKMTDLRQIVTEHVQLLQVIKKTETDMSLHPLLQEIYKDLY
T2 sequence (P19793 228-462 partner limits assumed): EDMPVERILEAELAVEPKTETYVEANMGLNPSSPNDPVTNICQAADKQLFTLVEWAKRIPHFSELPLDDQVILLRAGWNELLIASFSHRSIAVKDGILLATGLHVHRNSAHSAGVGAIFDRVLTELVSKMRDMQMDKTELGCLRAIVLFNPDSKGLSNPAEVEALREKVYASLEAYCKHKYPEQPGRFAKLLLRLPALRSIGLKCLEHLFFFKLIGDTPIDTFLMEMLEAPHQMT
Outline: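 TR-FRET measuring biotinylated MED1 LxxLL peptide association with 2 nM each His-PPARG LBD (Q203-Y477) and Flag-RXRA LBD (E228-T462), E. coli expressed. Read after 3 h incubation; ratios normalized to DMSO (0%) and GW9662 minimum (100%) for IC50 and maximal MED1 repulsion.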

Structure (SMILES) | EC50 [1] | inhibition at 0.1 µM [2] | EC50 [3]
N#Cc1ccc(Cl)c(-c2cc(=O)c3c(F)c(-c4ccnc(CO)c4)c(F)cc3[nH]2)c1 [Example 71, 4-chloro-3-(5,7-difluoro-6-(2-(hydroxymethyl)pyridin-4-yl)-4-oxo-1,4-dihydroquinolin-2-yl)benzonitrile] | 1 to 10 µM | 51% | 1 to 10 µM
COCCn1ccc(-c2c(F)cc3[nH]c(-c4cc(C#N)ccc4Cl)cc(=O)c3c2F)n1 [Example 72, 4-chloro-3-(5,7-difluoro-6-(1-(2-methoxyethyl)-1H-pyrazol-3-yl)-4-oxo-1,4-dihydroquinolin-2-yl)benzonitrile] | 0.1 to 1 µM | 79% | 0.1 to 1 µM
N#Cc1ccc(Cl)c(-c2cc(=O)c3c(F)c(-c4ccc(C(F)F)nc4)c(F)cc3[nH]2)c1 [Example 73, 4-chloro-3-(6-(6-(difluoromethyl)pyridin-3-yl)-5,7-difluoro-4-oxo-1,4-dihydroquinolin-2-yl)benzonitrile] | 0.01 to 0.1 µM | 85% | 0.01 to 0.1 µM
N#Cc1ccc(Cl)c(-c2cc(=O)c3c(F)c(-c4cccc(C(=O)O)c4)c(F)cc3[nH]2)c1 [Example 74, 3-(2-(2-chloro-5-cyanophenyl)-5,7-difluoro-4-oxo-1,4-dihydroquinolin-6-yl)benzoic acid] | 0.1 to 1 µM | 12% | 0.1 to 1 µM
N#Cc1ccc(Cl)c(-c2cc(=O)c3c(F)c(-c4ccc(C(=O)O)cc4)c(F)cc3[nH]2)c1 [Example 75, 4-(2-(2-chloro-5-cyanophenyl)-5,7-difluoro-4-oxo-1,4-dihydroquinolin-6-yl)benzoic acid] | 1 to 10 µM | 20% | 1 to 10 µM
N#Cc1ccc(Cl)c(-c2cc(=O)c3c(F)c(-c4ccc(CC(=O)O)cc4)c(F)cc3[nH]2)c1 [Example 76, 2-(4-(2-(2-chloro-5-cyanophenyl)-5,7-difluoro-4-oxo-1,4-dihydroquinolin-6-yl)phenyl)acetic acid] | 0.1 to 1 µM | 39% | 0.1 to 1 µM
N#Cc1ccc(Cl)c(-c2cc(=O)c3c(F)c(CCC(=O)O)c(F)cc3[nH]2)c1 [Example 77, 3-(2-(2-chloro-5-cyanophenyl)-5,7-difluoro-4-oxo-1,4-dihydroquinolin-6-yl)propanoic acid] | 1 to 10 µM | 44% | 1 to 10 µM
CNC(=O)c1cccc(-c2c(F)cc3[nH]c(-c4cc(C#N)ccc4Cl)cc(=O)c3c2F)c1 [Example 78, 3-(2-(2-chloro-5-cyanophenyl)-5,7-difluoro-4-oxo-1,4-dihydroquinolin-6-yl)-N-methylbenzamide] | 0.1 to 1 µM | 36% | 0.1 to 1 µM
CNC(=O)c1ccc(-c2c(F)cc3[nH]c(-c4cc(C#N)ccc4Cl)cc(=O)c3c2F)cc1 [Example 79, 4-(2-(2-chloro-5-cyanophenyl)-5,7-difluoro-4-oxo-1,4-dihydroquinolin-6-yl)-N-methylbenzamide] | 0.1 to 1 µM | 58% | 0.1 to 1 µM
CNC(=O)Cc1ccc(-c2c(F)cc3[nH]c(-c4cc(C#N)ccc4Cl)cc(=O)c3c2F)cc1 [Example 80, 2-(4-(2-(2-chloro-5-cyanophenyl)-5,7-difluoro-4-oxo-1,4-dihydroquinolin-6-yl)phenyl)-N-methylacetamide] | 0.1 to 1 µM | 47% | 0.1 to 1 µM
CNC(=O)CCc1c(F)cc2[nH]c(-c3cc(C#N)ccc3Cl)cc(=O)c2c1F [Example 81, 3-(2-(2-chloro-5-cyanophenyl)-5,7-difluoro-4-oxo-1,4-dihydroquinolin-6-yl)-N-methylpropanamide] | 1 to 10 µM | 46% | > 10 µM
CN(C)C(=O)c1cc(-c2c(F)cc3[nH]c(-c4cc(C#N)ccc4Cl)cc(=O)c3c2F)ccc1F [Example 82, 5-(2-(2-chloro-5-cyanophenyl)-5,7-difluoro-4-oxo-1,4-dihydroquinolin-6-yl)-2-fluoro-N,N-dimethylbenzamide] | 0.1 to 1 µM | 70% | 0.1 to 1 µM
CN(C)C(=O)c1c(F)ccc(-c2c(F)cc3[nH]c(-c4cc(C#N)ccc4Cl)cc(=O)c3c2F)c1F [Example 83, 3-(2-(2-chloro-5-cyanophenyl)-5,7-difluoro-4-oxo-1,4-dihydroquinolin-6-yl)-2,6-difluoro-N,N-dimethylbenzamide] | 0.1 to 1 µM | 76% | 0.1 to 1 µM
CN(C)C(=O)CCc1c(F)cc2[nH]c(-c3cc(C#N)ccc3Cl)cc(=O)c2c1F [Example 84, 3-(2-(2-chloro-5-cyanophenyl)-5,7-difluoro-4-oxo-1,4-dihydroquinolin-6-yl)-N,N-dimethylpropanamide] | 1 to 10 µM | 67% | 1 to 10 µM
CN(C)C(=O)c1cccc(-c2c(F)cc3[nH]c(-c4cc(C#N)ccc4Cl)cc(=O)c3c2F)n1 [Example 85, 6-(2-(2-chloro-5-cyanophenyl)-5,7-difluoro-4-oxo-1,4-dihydroquinolin-6-yl)-N,N-dimethylpicolinamide] | 1 to 10 µM | 59% | 1 to 10 µM
CN(C)C(=O)c1cc(-c2c(F)cc3[nH]c(-c4cc(C#N)ccc4Cl)cc(=O)c3c2F)cc(F)c1F [Example 86, 5-(2-(2-chloro-5-cyanophenyl)-5,7-difluoro-4-oxo-1,4-dihydroquinolin-6-yl)-2,3-difluoro-N,N-dimethylbenzamide] | 0.1 to 1 µM | 75% | 0.1 to 1 µM
CN(C)C(=O)c1cc(-c2c(F)cc3[nH]c(-c4cc(C#N)ccc4Cl)cc(=O)c3c2F)c(F)cc1F [Example 87, 5-(2-(2-chloro-5-cyanophenyl)-5,7-difluoro-4-oxo-1,4-dihydroquinolin-6-yl)-2,4-difluoro-N,N-dimethylbenzamide] | 0.1 to 1 µM | 75% | 0.1 to 1 µM
CN(C)C(=O)c1cc(-c2c(F)cc3[nH]c(-c4cc(C#N)ccc4Cl)cc(=O)c3c2F)ccn1 [Example 88, 4-(2-(2-chloro-5-cyanophenyl)-5,7-difluoro-4-oxo-1,4-dihydroquinolin-6-yl)-N,N-dimethylpicolinamide] | 1 to 10 µM | 41% | > 10 µM
CN(C)C(=O)c1cc(-c2c(F)cc3[nH]c(-c4cc(C#N)ccc4Cl)cc(=O)c3c2F)ccc1C(F)(F)F [Example 89, 5-(2-(2-chloro-5-cyanophenyl)-5,7-difluoro-4-oxo-1,4-dihydroquinolin-6-yl)-N,N-dimethyl-2-(trifluoromethyl)benzamide] | 0.1 to 1 µM | 56% | 0.1 to 1 µM
N#Cc1ccc(Cl)c(-c2cc(=O)c3c(F)c(C(O)CO)c(F)cc3[nH]2)c1 (stereo not drawn) [Example 90, 4-chloro-3-(6-(1,2-dihydroxyethyl)-5,7-difluoro-4-oxo-1,4-dihdroquinolin-2-yl)benzonitrile] | 1 to 10 µM | 0% | > 10 µM
N#Cc1ccc(Cl)c(-c2cc(=O)c3c(F)c(-c4ccn(CC(O)CO)n4)c(F)cc3[nH]2)c1 (stereo not drawn) [Example 92, 4-chloro-3-(6-(1-(2,3-dihydroxypropyl)-1H-pyrazol-3-yl)-5,7-difluoro-4-oxo-1,4-dihydroquinolin-2-yl)benzonitrile] | 0.1 to 1 µM | 24% | 0.1 to 1 µM
N#Cc1ccc(Cl)c(-c2cc(=O)c3c(F)c(C4=CCNCC4)c(F)cc3[nH]2)c1 [Example 93, 4-chloro-3-(5,7-difluoro-4-oxo-6-(1,2,3,6-tetrahydropyridin-4-yl)-14-dihydroquinolin-2-yl)benzonitrile] | 1 to 10 µM | 48% | 1 to 10 µM
N#Cc1ccc(Cl)c(-c2cc(=O)c3c(F)c(C4CCNCC4)c(F)cc3[nH]2)c1 [Example 94, 4-chloro-3-(5,7-difluoro-4-oxo-6-(piperidin-4-yl)-1,4-dihydroquinolin-2-yl)benzonitrile] | 1 to 10 µM | 27% | 1 to 10 µM
CC(=O)N1CCC(c2c(F)cc3[nH]c(-c4cc(C#N)ccc4Cl)cc(=O)c3c2F)CC1 [Example 95, 3-(6-(1-acetylpiperidin-4-yl)-5,7-difluoro-4-oxo-1,4-dihydroquinolin-2-yl)-4-chlorobenzonitrile] | 0.1 to 1 µM | 87% | 0.1 to 1 µM
